# In ChEMBL document CHEMBL5723379, “Affinity On-target Cellular Literature for EUbOPEN Chemogenomic Library” (2024):
# pEC50, pIC50: −log10 of the molar value.
# Key:
# [1] = biological target: T1, Peroxisome proliferator-activated receptor delta (Homo sapiens, UniProt Q03181); experiment: Affinity On-target Cellular interaction: (Reporter gene assay (HEK293T cells)) EUB0001141a PPARD; type: functional, cell-based, HEK-293T; design: mode of action Agonist, recommended concentration 1 uM
# T1 sequence (Q03181 whole entry): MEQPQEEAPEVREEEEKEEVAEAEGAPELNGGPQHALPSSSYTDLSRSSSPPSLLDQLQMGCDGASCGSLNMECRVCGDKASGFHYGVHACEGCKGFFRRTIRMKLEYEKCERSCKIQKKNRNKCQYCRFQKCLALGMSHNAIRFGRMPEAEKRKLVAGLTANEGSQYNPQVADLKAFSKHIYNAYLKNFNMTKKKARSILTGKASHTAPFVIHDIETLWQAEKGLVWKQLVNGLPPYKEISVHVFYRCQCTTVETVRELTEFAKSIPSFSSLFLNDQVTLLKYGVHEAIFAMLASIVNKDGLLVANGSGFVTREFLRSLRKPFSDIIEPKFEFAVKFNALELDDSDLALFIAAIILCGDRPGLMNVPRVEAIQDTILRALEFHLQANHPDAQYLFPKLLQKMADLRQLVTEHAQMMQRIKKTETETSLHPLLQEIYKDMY
# [2] = biological target: T2, Peroxisome proliferator-activated receptor alpha (Homo sapiens, UniProt Q07869); experiment: Affinity On-target Cellular interaction: (Reporter gene assay (HEK293T cells)) EUB0000581a PPARA; type: functional, cell-based, HEK-293T; design: mode of action Agonist, recommended concentration 1 uM
# T2 sequence (Q07869 whole entry): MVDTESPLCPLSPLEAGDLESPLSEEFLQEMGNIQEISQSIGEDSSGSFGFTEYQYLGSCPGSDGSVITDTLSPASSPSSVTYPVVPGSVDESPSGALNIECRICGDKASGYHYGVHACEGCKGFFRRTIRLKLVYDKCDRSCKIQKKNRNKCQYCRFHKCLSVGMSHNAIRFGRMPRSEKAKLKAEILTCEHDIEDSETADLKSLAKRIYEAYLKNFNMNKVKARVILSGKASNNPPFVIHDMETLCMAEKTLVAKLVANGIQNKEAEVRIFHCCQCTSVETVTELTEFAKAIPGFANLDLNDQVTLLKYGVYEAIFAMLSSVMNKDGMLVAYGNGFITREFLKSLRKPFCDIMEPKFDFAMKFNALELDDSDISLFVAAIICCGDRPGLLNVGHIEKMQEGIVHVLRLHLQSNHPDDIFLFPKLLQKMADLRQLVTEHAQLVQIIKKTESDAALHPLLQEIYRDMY
# [3] = biological target: T1, Peroxisome proliferator-activated receptor delta
# [4] = biological target: Nuclear receptor subfamily 1 group I member 3 (Homo sapiens, UniProt Q14994); experiment: Affinity On-target Cellular interaction: (Reporter gene assay (HEK293T cells)) EUB0000551aCl NR1I3; type: functional, cell-based, HEK-293T; design: mode of action Antagonist, recommended concentration 1 uM
# Chain of Nuclear receptor subfamily 1 group I member 3 (Q14994 whole entry): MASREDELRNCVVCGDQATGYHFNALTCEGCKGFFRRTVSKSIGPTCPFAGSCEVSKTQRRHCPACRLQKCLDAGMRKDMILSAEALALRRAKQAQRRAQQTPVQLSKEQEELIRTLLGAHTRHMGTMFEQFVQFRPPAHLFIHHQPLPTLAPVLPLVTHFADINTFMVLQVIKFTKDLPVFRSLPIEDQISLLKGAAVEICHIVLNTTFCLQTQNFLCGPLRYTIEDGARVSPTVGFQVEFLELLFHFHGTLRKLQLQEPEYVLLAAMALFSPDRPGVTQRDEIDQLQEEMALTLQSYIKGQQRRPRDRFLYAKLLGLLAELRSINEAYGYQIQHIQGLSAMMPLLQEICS
# [5] = biological target: T3, Peroxisome proliferator-activated receptor gamma (Homo sapiens, UniProt P37231); experiment: Affinity On-target Cellular interaction: (Reporter gene assay (HEK293T cells)) EUB0001144a PPARG; type: functional, cell-based, HEK-293T; design: mode of action Agonist, recommended concentration 1 uM
# T3 sequence (P37231 whole entry): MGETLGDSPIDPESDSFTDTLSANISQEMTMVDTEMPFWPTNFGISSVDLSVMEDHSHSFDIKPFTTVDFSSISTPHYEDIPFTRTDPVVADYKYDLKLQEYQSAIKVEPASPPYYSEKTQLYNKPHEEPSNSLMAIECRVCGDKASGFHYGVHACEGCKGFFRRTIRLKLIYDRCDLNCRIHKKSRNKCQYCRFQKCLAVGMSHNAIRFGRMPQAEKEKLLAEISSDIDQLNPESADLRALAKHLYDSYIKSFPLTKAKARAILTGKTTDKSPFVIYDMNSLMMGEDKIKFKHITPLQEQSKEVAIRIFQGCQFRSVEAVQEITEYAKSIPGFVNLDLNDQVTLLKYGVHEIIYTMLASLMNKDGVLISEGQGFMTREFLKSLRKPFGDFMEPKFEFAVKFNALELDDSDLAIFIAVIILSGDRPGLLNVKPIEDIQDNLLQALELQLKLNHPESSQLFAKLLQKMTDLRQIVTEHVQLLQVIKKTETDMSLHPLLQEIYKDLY
# [6] = biological target: T2, Peroxisome proliferator-activated receptor alpha; experiment: Affinity On-target Cellular interaction: (Reporter gene assay (HEK293T cells)) EUB0001144a PPARA; type: functional, cell-based, HEK-293T; design: mode of action Agonist, recommended concentration 1 uM
# [7] = biological target: T3, Peroxisome proliferator-activated receptor gamma; experiment: Affinity On-target Cellular interaction: (Reporter gene assay (HEK293T cells)) EUB0001143a PPARG; type: functional, cell-based, HEK-293T; design: mode of action Agonist, recommended concentration 1 uM
# [8] = biological target: T4, Retinoic acid receptor alpha (Homo sapiens, UniProt P10276); experiment: Affinity On-target Cellular interaction: (Reporter gene assay (HEK293T cells)) EUB0000835a RARA; type: functional, cell-based, HEK-293T; design: mode of action Agonist, recommended concentration 1 uM
# T4 sequence (P10276 whole entry): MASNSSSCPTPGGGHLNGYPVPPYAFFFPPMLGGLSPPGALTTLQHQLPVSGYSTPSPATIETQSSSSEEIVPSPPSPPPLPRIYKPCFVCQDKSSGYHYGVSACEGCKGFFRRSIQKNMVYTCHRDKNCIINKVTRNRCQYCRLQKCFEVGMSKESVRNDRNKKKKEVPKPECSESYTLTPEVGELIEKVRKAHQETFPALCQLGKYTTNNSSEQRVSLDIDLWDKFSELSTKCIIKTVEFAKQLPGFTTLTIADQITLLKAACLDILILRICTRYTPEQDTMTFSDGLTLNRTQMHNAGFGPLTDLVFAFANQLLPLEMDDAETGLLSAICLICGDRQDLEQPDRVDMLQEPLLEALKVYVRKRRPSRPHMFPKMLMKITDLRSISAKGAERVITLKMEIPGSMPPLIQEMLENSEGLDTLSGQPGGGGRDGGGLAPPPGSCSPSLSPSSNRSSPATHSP
# [9] = biological target: Retinoic acid receptor gamma (Homo sapiens, UniProt P13631); experiment: Affinity On-target Cellular interaction: (Reporter gene assay (HEK293T cells)) EUB0000835a RARG; type: functional, cell-based, HEK-293T; design: mode of action Agonist, recommended concentration 1 uM
# Chain of Retinoic acid receptor gamma (P13631 whole entry): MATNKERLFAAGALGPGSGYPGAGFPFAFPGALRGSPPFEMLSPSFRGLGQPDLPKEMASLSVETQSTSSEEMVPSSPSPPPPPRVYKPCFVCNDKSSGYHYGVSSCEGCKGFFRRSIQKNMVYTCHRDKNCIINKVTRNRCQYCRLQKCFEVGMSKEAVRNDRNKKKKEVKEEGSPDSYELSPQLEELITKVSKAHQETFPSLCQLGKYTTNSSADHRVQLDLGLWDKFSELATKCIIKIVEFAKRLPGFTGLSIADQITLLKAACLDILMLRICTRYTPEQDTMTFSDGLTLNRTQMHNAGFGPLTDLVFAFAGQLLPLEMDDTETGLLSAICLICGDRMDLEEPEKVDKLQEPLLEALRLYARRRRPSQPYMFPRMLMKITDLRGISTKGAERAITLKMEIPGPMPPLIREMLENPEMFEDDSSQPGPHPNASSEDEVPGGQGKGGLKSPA
# [10] = biological target: Retinoic acid receptor beta (Homo sapiens, UniProt P10826); experiment: Affinity On-target Cellular interaction: (Reporter gene assay (HEK293T cells)) EUB0000835a RARB; type: functional, cell-based, HEK-293T; design: mode of action Agonist, recommended concentration 1 uM
# Chain of Retinoic acid receptor beta (P10826 whole entry): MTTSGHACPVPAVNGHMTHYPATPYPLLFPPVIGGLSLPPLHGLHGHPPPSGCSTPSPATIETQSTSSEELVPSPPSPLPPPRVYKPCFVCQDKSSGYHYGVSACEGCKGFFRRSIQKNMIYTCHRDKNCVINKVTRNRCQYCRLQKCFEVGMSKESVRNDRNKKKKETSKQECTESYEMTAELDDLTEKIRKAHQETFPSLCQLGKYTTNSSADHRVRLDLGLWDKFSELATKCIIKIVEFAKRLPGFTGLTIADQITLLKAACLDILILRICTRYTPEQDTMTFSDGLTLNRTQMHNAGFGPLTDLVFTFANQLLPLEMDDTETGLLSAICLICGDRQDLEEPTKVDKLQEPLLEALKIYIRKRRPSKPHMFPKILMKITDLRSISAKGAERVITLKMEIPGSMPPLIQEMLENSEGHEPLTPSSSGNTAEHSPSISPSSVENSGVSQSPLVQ
# [11] = biological target: Nucleotide triphosphate diphosphatase NUDT15 (Homo sapiens) (UniProt Q9NV35); experiment: Affinity On-target Cellular interaction: (Cellular thermal shift assay, HL-60 cells) EUB0002330a NUDT15; type: functional, cell-based; design: recommended concentration 1 uM; details: Affinity On-target Cellular Source Knowledge https://www.nature.com/articles/s41589-020-0592-z
# Chain of Nucleotide triphosphate diphosphatase NUDT15 (Homo sapiens) (Q9NV35 whole entry): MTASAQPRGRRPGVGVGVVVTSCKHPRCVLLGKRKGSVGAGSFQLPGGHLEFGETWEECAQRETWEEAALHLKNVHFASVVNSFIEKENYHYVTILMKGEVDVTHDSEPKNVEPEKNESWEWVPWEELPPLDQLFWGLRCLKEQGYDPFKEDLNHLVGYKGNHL
# [12] = biological target: Vitamin D3 receptor (Homo sapiens, UniProt P11473); experiment: Affinity On-target Cellular interaction: (Reporter gene assay (HEK293T cells)) EUB0000583a VDR; type: functional, cell-based, HEK-293T; design: mode of action Agonist, recommended concentration 1 uM
# Chain of Vitamin D3 receptor (P11473 whole entry): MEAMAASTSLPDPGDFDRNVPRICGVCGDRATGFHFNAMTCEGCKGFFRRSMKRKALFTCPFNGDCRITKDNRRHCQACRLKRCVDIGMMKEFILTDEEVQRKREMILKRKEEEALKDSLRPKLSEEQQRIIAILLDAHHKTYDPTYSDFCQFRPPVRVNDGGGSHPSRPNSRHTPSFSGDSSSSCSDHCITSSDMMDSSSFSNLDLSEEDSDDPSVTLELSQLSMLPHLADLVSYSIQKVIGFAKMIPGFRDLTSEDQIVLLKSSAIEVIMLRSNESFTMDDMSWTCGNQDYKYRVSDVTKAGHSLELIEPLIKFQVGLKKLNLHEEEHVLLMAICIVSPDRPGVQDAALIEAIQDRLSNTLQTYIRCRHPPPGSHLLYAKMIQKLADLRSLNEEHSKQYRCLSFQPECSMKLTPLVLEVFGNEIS
# [13] = biological target: T4, Retinoic acid receptor alpha; experiment: Affinity On-target Cellular interaction: (Reporter gene assay (HEK293T cells)) EUB0000565a RARA; type: functional, cell-based, HEK-293T; design: mode of action Agonist, recommended concentration 1 uM
# [14] = biological target: Bile acid receptor (Homo sapiens, UniProt Q96RI1); experiment: Affinity On-target Cellular interaction: (Reporter gene assay (HEK293T cells)) EUB0000182b NR1H4; type: functional, cell-based, HEK-293T; design: mode of action Agonist, recommended concentration 1 uM
# Chain of Bile acid receptor (Q96RI1 whole entry): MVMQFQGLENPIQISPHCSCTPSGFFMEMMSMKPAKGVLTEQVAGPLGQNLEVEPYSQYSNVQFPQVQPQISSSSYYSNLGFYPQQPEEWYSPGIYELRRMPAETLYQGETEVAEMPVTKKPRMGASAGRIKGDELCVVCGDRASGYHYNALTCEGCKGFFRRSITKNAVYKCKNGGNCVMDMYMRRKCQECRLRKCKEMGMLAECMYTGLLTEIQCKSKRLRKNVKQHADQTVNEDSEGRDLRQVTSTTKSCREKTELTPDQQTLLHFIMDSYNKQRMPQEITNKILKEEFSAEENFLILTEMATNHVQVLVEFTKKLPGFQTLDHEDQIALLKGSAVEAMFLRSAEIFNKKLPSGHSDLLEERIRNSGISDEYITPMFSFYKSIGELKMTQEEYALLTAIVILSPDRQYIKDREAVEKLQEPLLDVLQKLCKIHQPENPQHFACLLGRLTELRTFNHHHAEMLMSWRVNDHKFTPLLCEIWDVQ
# [15] = biological target: T5, Oxysterols receptor LXR-beta (Homo sapiens, UniProt P55055); experiment: Affinity On-target Cellular interaction: (Reporter gene assay (HEK293T cells)) EUB0000572aCl NR1H2; type: functional, cell-based, HEK-293T; design: mode of action Agonist, recommended concentration 3 uM
# T5 sequence (P55055 whole entry): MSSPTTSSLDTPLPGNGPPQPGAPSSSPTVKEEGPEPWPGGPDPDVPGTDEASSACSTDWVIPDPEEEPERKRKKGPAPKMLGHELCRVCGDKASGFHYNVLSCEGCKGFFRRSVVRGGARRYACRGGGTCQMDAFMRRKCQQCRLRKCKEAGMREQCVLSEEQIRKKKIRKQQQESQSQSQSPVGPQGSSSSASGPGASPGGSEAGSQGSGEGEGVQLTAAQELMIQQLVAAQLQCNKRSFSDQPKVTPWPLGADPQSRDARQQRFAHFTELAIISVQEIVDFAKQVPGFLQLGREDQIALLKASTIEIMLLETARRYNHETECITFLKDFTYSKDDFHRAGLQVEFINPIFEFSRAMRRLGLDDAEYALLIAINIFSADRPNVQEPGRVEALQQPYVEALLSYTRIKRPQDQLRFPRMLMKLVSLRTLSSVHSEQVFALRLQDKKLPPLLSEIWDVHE
compound,measurement,setting,value
Cc1nc(-c2ccc(C(F)(F)F)cc2)sc1C(=O)NCc1ccc(OC(C)(C)C(=O)O)cc1 [GW590735],pEC50,[1],6.80
CC(C)c1ccc(CC(=O)N2CCC[C@@H](c3cccc(OC(C)(C)C(=O)O)c3)C2)cc1,pEC50,[2],7.30
O=C(O)CCCc1cc2cc(Cl)ccc2n1S(=O)(=O)c1ccc2ncsc2c1 [LANIFIBRANOR],pEC50,[3],6.05
Cc1cccc(CN2CCN(C(c3ccccc3)c3ccc(Cl)cc3)CC2)c1 (stereo not given),pIC50,[4],7.20
CCO[C@@H](Cc1ccc(OCCc2ccc(OS(C)(=O)=O)cc2)cc1)C(=O)O [TESAGLITAZAR],pEC50,[5],6.89
same,pEC50,[6],6.54
COc1cc2c(cc1CC=C(C)C)C(=O)C[C@@H](c1ccc(O)cc1)O2 [BAVACHININ A],pEC50,[7],6.14
C[C@H]1[C@H]2CC[C@H]3[C@@H]4CC=C5C[C@@H](N(C)C)CC[C@]5(C)[C@H]4CC[C@]23CN1C [CONESSINE],pEC50,[8],6.20
same,pEC50,[9],6.30
same,pEC50,[10],8.00
O=C(c1ccc2[nH]ccc2c1)N1CCN(S(=O)(=O)c2ccc3[nH]c(=O)oc3c2)CC1,K,[11],280 nM
C=C1/C(=C\C=C2/CCC[C@]3(C)[C@@H]([C@H](C)/C=C/[C@H](C)C(C)C)CC[C@@H]23)C[C@@H](O)C[C@@H]1O [DOXERCALCIFEROL],pEC50,[12],6.02
CC1(C)C(=O)C(C)(C)c2cc(C(=O)Nc3ccc(C(=O)O)cc3)ccc21,pEC50,[13],6.96
COC(=O)/C=C/c1cccc(N(Cc2ccc(-c3ccc(N(C)C)cc3)cc2)C(=O)C2CCCCC2)c1 [FEXARAMINE],pEC50,[14],6.02
O=C(O)Cc1cccc(OCCCN(Cc2cccc(C(F)(F)F)c2Cl)CC(c2ccccc2)c2ccccc2)c1,pEC50,[15],5.68
